Source: patent US20250352539A1, “COMBINATION THERAPY FOR TREATING CANCER” (AstraZeneca AB, priority 2022, published 2025)
Values joined by “and” are separate entries in the source; they are usually repeats but may differ in a detail not shown here. Equal entries are not always repeated. Where two headings read alike, the source gives them in different places.

Assays:
Assay in all cases: 10-day Cell Titre Glo combination screen
Type in all cases: cell-based
ZR-75-1 = settings: Homo sapiens; ZR-75-1 breast; monotherapy; read-out: mono AC50
Method in brief: (§1)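 10-day combo screen, 6×6 matrix; CTG luminescence readout; normalised to day 0 + DMSO. Synergy = HSA Volume (excess over HSA surface); CI at chosen effect level; monotherapy AC50s.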

BT-20 = settings: Homo sapiens; BT-20 breast; monotherapy; read-out: mono AC50
Method in brief: as §1

NCI-H2085 = NCI-H2085 lung; monotherapy; read-out: mono AC50
Method in brief: as §1

NCI-H1993 = settings: Homo sapiens; NCI-H1993 lung; monotherapy; read-out: mono AC50
Method in brief: as §1

DMS53 = settings: Homo sapiens, DMS-53; DMS53 lung; monotherapy; read-out: mono AC50
Method in brief: as §1

NCI-H838 = settings: Homo sapiens; NCI-H838 lung; monotherapy; read-out: mono AC50
Method in brief: as §1

A549 = settings: Homo sapiens; A549 lung; monotherapy; read-out: mono AC50
Method in brief: as §1

HCC1143 = settings: Homo sapiens; HCC1143 breast; monotherapy; read-out: mono AC50
Method in brief: as §1

NCI-H358 = settings: Homo sapiens; NCI-H358 lung; monotherapy; read-out: mono AC50
Method in brief: as §1

EFM-19 = settings: Homo sapiens; EFM-19 breast; monotherapy; read-out: mono AC50
Method in brief: as §1

HCC1937 = settings: Homo sapiens; HCC1937 breast; monotherapy; read-out: mono AC50
Method in brief: as §1

NCI-H2291 = settings: Homo sapiens; NCI-H2291 lung; monotherapy; read-out: mono AC50
Method in brief: as §1

HCC1395 = settings: Homo sapiens; HCC1395 breast; monotherapy; read-out: mono AC50
Method in brief: as §1

MDA-MB-157 = settings: Homo sapiens; MDA-MB-157 breast; monotherapy; read-out: mono AC50
Method in brief: as §1

SK-BR-3 = settings: Homo sapiens; SK-BR-3 breast; monotherapy; read-out: mono AC50
Method in brief: as §1

NCI-H2009 = settings: Homo sapiens; NCI-H2009 lung; monotherapy; read-out: mono AC50
Method in brief: as §1

NCI-H1666 = settings: Homo sapiens; NCI-H1666 lung; monotherapy; read-out: mono AC50
Method in brief: as §1

Calu-1 = settings: monotherapy, read-out: mono AC50
Method in brief: as §1

NCI-H1395 = settings: monotherapy, read-out: mono AC50
Method in brief: as §1

NCI-H810 = settings: Homo sapiens; NCI-H810 lung; monotherapy; read-out: mono AC50
Method in brief: as §1

MCF7 = settings: Homo sapiens; MCF7 breast; monotherapy; read-out: mono AC50
Method in brief: as §1

CAL-120 = settings: Homo sapiens; CAL-120 breast; monotherapy; read-out: mono AC50
Method in brief: as §1

For `C[C@@H]1COCCN1c1cc(C2([S@](C)(=N)=O)CC2)nc(-c2ccnc3[nH]ccc23)n1` [AZD6738, 4-{4-[(3R)-3-Methylmorpholin-4-yl]-6-[1-((R)—S-methylsulfonimidoyl)cyclopropyl]pyrimidin-2-yl}-1H-pyrrolo[2,3-b]-pyridine], which AC50 (ZR-75-1) is on record?
The AC50 was 6.03 µM.

And the AC50 (BT-20)?
Its AC50 is 0.723 µM.

And the AC50 (NCI-H2085)?
The AC50 was 4.75 µM and 5.49 µM.

What about the AC50 (NCI-H1993) of the same compound?
The AC50 was 2.97 µM.

And the AC50 (DMS53)?
Its AC50 is 2.18 µM.

What about the AC50 (NCI-H838) of the same compound?
The AC50 was 0.274 µM.

And the AC50 (A549)?
Its AC50 is 3.11 µM.

And the AC50 (HCC1143)?
Its AC50 is 0.46 µM.

What about the AC50 (NCI-H358) of the same compound?
Its AC50 is 2.67 µM.

What about the AC50 (EFM-19) of the same compound?
The AC50 was 14.3 µM.

And the AC50 (HCC1937)?
The AC50 was 0.57 µM.

And the AC50 (NCI-H2291)?
The AC50 was 1.12 µM.

And the AC50 (HCC1395)?
Its AC50 is 0.814 µM.

And the AC50 (MDA-MB-157)?
Its AC50 is 0.732 µM.

What about the AC50 (SK-BR-3) of the same compound?
Its AC50 is 0.542 µM.

What about the AC50 (NCI-H2009) of the same compound?
Its AC50 is 1.02 µM.

And the AC50 (NCI-H1666)?
Its AC50 is 0.767 µM.

What about the AC50 (Calu-1; Calu-1 lung) of the same compound?
The AC50 was 5.6 µM.

What about the AC50 (Calu-1; Homo sapiens, Calu-1, Calu-1 lung) of the same compound?
Its AC50 is 3.22 µM.

And the AC50 (NCI-H1395; Homo sapiens, NCI-H1395, NCI-H1395 lung)?
Its AC50 is 3.31 µM.

What about the AC50 (NCI-H1395; NCI-H1395 lung) of the same compound?
The AC50 was 2.9 µM.

What about the AC50 (NCI-H810) of the same compound?
Its AC50 is 3.35 µM.

And the AC50 (MCF7)?
The AC50 was 1.12 µM.

What about the AC50 (CAL-120) of the same compound?
Its AC50 is 1.18 µM.
